Data published in US6319916A, “Heterocyclic compounds, their production and use” (Takeda Chemical Industries, Ltd., priority 1992, dated 2001).
pIC50: −log10 of the molar value. Counter-ions that a name gives are not always drawn.

The compounds below were run against T1, Acetylcholinesterase (Rattus norvegicus, UniProt P37136) (assay: Cholinesterase inhibitory activity with (acetyl[^3 H])-acetylcholine). Details: S1 fraction of homogenate of male Wistar rat cerebral cortex; 30 minutes incubation.
T1 construct: S1 fraction of a homogenate of male Wistar rat cerebral cortex as the cholinesterase source; from tissue; host or cells: male Wistar rat cerebral cortex, S1 fraction of homogenate
T1 sequence (P37136 32-614): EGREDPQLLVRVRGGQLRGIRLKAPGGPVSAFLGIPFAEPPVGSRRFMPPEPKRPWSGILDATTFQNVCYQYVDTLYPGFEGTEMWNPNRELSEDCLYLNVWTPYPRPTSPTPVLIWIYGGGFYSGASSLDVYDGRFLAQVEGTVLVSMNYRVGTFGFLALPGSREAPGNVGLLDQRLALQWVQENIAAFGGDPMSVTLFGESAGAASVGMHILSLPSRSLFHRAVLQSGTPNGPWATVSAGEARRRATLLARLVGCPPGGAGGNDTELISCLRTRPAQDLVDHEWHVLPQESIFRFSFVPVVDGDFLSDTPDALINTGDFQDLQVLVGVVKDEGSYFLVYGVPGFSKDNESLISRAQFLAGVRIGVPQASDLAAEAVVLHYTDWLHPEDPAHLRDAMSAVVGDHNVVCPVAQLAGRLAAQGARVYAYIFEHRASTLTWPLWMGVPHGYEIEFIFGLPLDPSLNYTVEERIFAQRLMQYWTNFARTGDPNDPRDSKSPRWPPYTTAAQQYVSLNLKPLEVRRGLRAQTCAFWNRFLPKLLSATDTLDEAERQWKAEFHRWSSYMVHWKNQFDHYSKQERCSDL
Type: biochemical
Method: The cholinesterase inhibitory activity of the compound of this invention was assayed with (acetyl[^3 H])-acetylcholine. More specifically, (acetyl[^3 H])-acetylcholine as the substrate and the compound of this invention as the test sample were added to the S1 fraction of a homogenate of male Wistar rat cerebral cortex as the cholinesterase source. The mixture was incubated for 30 minutes, after completion of the reaction, to the reaction mixture was added a toluene-based scintillator, and the mixture was shaken. The reaction product [^3 H]-acetic acid was transferred to the toluene layer, which was subjected to determination of cholinesterase inhibitory activity by counting with a liquid scintillation counter.
The cholinesterase inhibitory activity of the test compound was expressed in 50% inhibitory concentration (IC50).
For CC(=O)N1CCOc2ccc(C(=O)CCC3CCN(Cc4ccccc4)CC3)cc2C1 [Example 4, 1-(4-Acetyl-2,3,4,5-tetrahydro-1,4-benzoxazepin-7-yl)-3-[1-(phenylmethyl)piperidin-4-yl]-1-propanone hydrochloride], the pIC50 was 7.26. For COc1ccc(CN2CCOc3ccc(C(=O)CCC4CCN(Cc5ccccc5)CC4)cc3C2)cc1 [Example 5, 1-[4-(4-Methoxyphenylmethyl)-2,3,4,5-tetrahydro-1,4-benzoxazepin-7-yl]-3-[1-(phenylmethyl)piperidin-4-yl]-1-propanone dihydrochloride], the pIC50 was 7.16. In the case of Cl.Cl.O=C(CCC1CCN(Cc2ccccc2)CC1)c1ccc2c(c1)CN(Cc1ccccc1)CCO2 [3-B, 1-[4-(Phenylmethyl)-2,3,4,5-tetrahydro-1,4-benzoxazepin-7-yl]-3-[1-(phenylmethyl)piperidin-4-yl]-1-propanone dihydrochloride], the pIC50 was 6.92. In the case of O=CN1CCOc2ccc(C(=O)CCN3CCN(Cc4ccccc4)CC3)cc2C1 [Example 6, 1-(4-Formyl-2,3,4,5-tetrahydro-1,4-benzoxazepin-7-yl)-3-[4-(phenylmethyl)piperazin-1-yl]-1-propanone dihydrochloride], the pIC50 was 6.97. In the case of O=C(CCC1CCN(Cc2ccccc2)CC1)c1ccc2c(c1)CN(Cc1ccc([N+](=O)[O-])cc1)CCO2 [8-5], the pIC50 was 7.90. O=C(CCC1CCN(Cc2ccccc2)CC1)c1ccc2c(c1)CNCCO2 [3-A, 3-[1-(Phenylmethyl)piperidin-4-yl]-1-(2,3,4,5-tetrahydro-1,4-benzoxazepin-7-yl)-1-propanone dihydrochloride] was tested, and the pIC50 was 7.76.

The compounds below were run on mice (assay: Antidepressant activity, tail suspension test). Details: 30 mg/kg, oral; thirty minutes later suspended on tails for 10 minutes; **P < 0.01; saline 49.45 ± 2.47.
Type: in vivo, ICR male mice
Method: The antidepressant activity of the compound of the present invention was assayed by means of tail suspension test using ICR male mice (five weeks of age, weighing 23.5 to 37.6 g) as test animals. […]. Thirty minutes later, the mice were suspended on tails for 10 minutes and immobility thereof (% control) was measured. The antidepressant activity of the test compound was shown as in percent control of immobility. As a comparative compound, desipramine, which is known to have an antidepressant activity, was employed and the immobility thereof was measured in the same manner as described above.
For Cl.Cl.O=C(CCC1CCN(Cc2ccccc2)CC1)c1ccc2c(c1)CN(Cc1ccccc1)CCO2 [3-B, 1-[4-(Phenylmethyl)-2,3,4,5-tetrahydro-1,4-benzoxazepin-7-yl]-3-[1-(phenylmethyl)piperidin-4-yl]-1-propanone dihydrochloride], the Immobility was 34.37 ± 4.49%. Work on CNCCCN1c2ccccc2CCc2ccccc21 [desipramine, reference compound] yielded an Immobility of 37.25 ± 3.32%.
